Test results reported in patent US11136409B2, “Compositions and methods for identification, assessment, prevention, and treatment of AML using USP10 biomarkers and modulators” (Dana-Farber Cancer Institute, Inc., priority 2016, dated 2021).
Entries after “also recorded” stand apart in the source; their conditions may differ. Where two headings read alike, the source gives them in different places.

What was measured:
PBMCs = assay: Treatment of PBMCs from healthy donors with USP10-targeting inhibitors; type: cell-based, human
From the text: (§1) Nomo-1, P31-FUJ, and NB4 were obtained from Dr. Gary Gilliland. MV4, 11 cells were obtained from Dr. Anthony Letai. Hel, K562, THP, U937, TF-1 and K052 cells were purchased from the American Type Culture Collection (ATCC) (Manassas, Va., USA). […] Cell lines were submitted for cell line authentication and were authenticated within 6 months of manuscript preparation through cell line short tandem repeat (STR) profiling (DDC Medical, Fairfield, Ohio and Molecular Diagnostics Laboratory, Dana Farber Cancer Institute). […] PBMCs were generously provided by Dr. Steven Treon and Dr. Guang Yang.
(§2) The CellTiter-Glo® assay (Promega, Madison, Wis.) was used for proliferation studies and carried out according to manufacturer instructions. Cell viability is reported as percentage of control (untreated) cells, and error bars represent the standard error of the mean for each data point.

[1] = tested on: AML primagraft (D835Y+, FLT3-ITD+) cells; assay: Treatment of mutant FLT3-expressing AML primagraft cells ex vivo; type: cell-based, human; conditions: read-out: IC50 (+/−S.D.) AML primagraft (D835Y+, FLT3-ITD+)
Procedure: All animal studies were performed according to protocols approved by the Dana-Farber Cancer Institute's Institutional Animal Care and Use Committee. […] Mice were sacrificed on day 21 of treatment. Bone marrow was flushed from mouse femurs, and spleens and livers were dissected and preserved first in formalin, followed 24 hours later by preservation in 70% ethanol. […] All AML primagraft samples used in the studies described herein were obtained through the Public Repository of Xenografts (proxe.org).
as §2

[2] = target: T1, human USP10 (residues 376-798) (Homo sapiens, UniProt Q14694); assay: In vitro USP10 activity assay (Ubiquitin-AMC); type: biochemical; conditions: ubiquitin-AMC as substrate; purified enzyme; read-out: USP10 biochemical IC50
T1 construct: A construct of human USP10 covering residues 376-798 in the pET28a vector; His-tag (cleaved yes); made in house; host or cells: E. coli BL21 (DE3)
T1 sequence (Q14694 376-798): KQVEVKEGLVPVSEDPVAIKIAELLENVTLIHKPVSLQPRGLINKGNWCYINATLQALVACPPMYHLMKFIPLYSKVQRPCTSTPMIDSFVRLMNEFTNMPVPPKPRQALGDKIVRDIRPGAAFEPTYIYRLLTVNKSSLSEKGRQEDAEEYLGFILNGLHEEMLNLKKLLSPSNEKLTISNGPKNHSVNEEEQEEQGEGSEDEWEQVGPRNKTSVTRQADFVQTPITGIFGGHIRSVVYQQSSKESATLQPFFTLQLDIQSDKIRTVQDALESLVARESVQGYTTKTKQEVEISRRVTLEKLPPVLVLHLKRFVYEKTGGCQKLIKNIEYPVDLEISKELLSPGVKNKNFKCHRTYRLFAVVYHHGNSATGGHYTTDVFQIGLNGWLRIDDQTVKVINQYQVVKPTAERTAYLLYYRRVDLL
Procedure: Protein expression and purification. A construct of human USP10 covering residues 376-798 in the pET28a vector was over-expressed in E. coli BL21 (DE3) in TB medium in the presence of […] of kanamycin. Cells were grown at 37° C. to an OD of 0.8, cooled to 17° C., induced with 500 μM isopropyl-1-thio-D-galactopyranoside, incubated overnight at 17° C., collected by centrifugation, and stored at −80° C. Cell pellets were sonicated in buffer A (50 mM HEPES (pH 7.5), 300 mM NaCl, 10% glycerol, 10 mM Imidazole, and 3 mM BME) and the resulting lysate was centrifuged at 30,000×g for 30 min. Ni-NTA beads (Qiagen) were mixed with lysate supernatant for 30 min and washed with buffer A. Beads were transferred to an FPLC-compatible column and the bound protein was washed with 15% buffer B (50 mM HEPES (pH 7.5), 300 mM NaCl, 10% glycerol, 300 mM Imidazole, and 3 mM BME) and eluted with 100% buffer B. Thrombin was added to the eluted protein and incubated at 4° C. overnight. The sample was then passed through a HiPrep 26/10 desalting column (GE Healthcare) pre-equilibrated with buffer A without imidazole, and the eluted protein was subjected to a second Ni-NTA step to remove His-tag and Thrombin. The eluent was concentrated and passed through a Superdex® 200 10/300GL column (GE Healthcare) in a buffer containing 20 mM HEPES (pH 7.5), 150 mM NaCl, and 1 mM DTT. Fractions were pooled, concentrated to 20 mg/ml, and frozen at −80° C.
In vitro USP10 activity assay. Recombinant USP10, residues 376-798, was tested for its activity in a Ubiquitin-AMC assay in presence or absence of inhibitors. For this assay, 10 nM USP10 were pre-incubated with different concentrations of inhibitors or DMSO as a control in 50 mM HEPES pH7.6, 0.5 mM EDTA, 11 uM ovalbumin, and 5 mM DTT. The reaction was incubated for 6 hours at room temperature prior to the addition of 2 uM Ubiquitin-AMC (Boston Biochem) substrate. The initial rate of the reaction was measured by collecting fluorescence data at one minute intervals over 30-minute period using a CLARIOstar® fluorescence plate reader at excitation and emission wavelength of 345 and 445 nm, respectively. The calculated initial rate values were plotted against inhibitor concentrations to determine IC50 values.

USP10 = USP10 (Homo sapiens, UniProt Q14694); assay: MALDI TOF DUB assay with diubiquitin substrate; type: biochemical; conditions: diubiquitin (K11) as substrate
Sequence of USP10 (Q14694 whole entry): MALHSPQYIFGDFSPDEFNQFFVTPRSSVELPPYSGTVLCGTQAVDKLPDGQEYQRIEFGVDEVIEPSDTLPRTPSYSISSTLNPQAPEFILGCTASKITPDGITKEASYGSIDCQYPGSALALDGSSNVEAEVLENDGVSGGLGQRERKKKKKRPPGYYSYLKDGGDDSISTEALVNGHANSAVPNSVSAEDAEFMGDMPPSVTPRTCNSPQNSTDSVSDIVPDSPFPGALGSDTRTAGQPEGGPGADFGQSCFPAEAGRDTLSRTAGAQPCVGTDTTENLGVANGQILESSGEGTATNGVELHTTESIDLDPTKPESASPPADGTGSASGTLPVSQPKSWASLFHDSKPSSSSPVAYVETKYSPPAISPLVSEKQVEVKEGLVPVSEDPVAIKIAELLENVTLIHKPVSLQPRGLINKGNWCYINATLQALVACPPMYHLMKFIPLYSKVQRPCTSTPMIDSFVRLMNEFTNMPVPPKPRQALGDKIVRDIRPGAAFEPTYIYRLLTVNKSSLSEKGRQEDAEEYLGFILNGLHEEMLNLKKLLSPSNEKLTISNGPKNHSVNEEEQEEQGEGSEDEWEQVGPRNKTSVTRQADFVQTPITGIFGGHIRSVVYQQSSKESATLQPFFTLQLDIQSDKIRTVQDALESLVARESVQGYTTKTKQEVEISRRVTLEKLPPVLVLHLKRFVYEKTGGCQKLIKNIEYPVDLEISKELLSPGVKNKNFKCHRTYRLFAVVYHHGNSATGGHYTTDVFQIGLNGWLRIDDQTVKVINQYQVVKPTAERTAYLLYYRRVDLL
Procedure: Thirty-one human DUBs were freshly diluted in the reaction buffer (40 mM Tris-HCl, pH 7.6, 5 mM DTT, 0.005% BSA) at different concentrations (see Table 10). […] The enzymes were pre-incubated with the compounds for 30 min at room temperature at 10 μM final concentration. 0.48 μl of di-ubiquitin topoisomers were added to the reaction mixture to initiate the reaction. The reaction was sealed and incubated for 30 min at room temperature and stopped by adding TFA to a final concentration of 2% (v/v).
Mass spectrometry data was acquired on an UltrafleXtreme MALDI-TOF mass spectrometer (Bruker Daltonics) with Compass 1.3 control and processing software. The sample carrier was taught before each analysis to optimize and centre laser shooting. […] Samples were analysed in automatic mode (AutoXecute, Bruker Daltonics). […] An amount of 3,500 shots were summed up in “random walk” and with “large” smartbeam laser focus. Spectra were automatically calibrated on the ^15N-Ub m/z and processed using smoothing (Savitzky-Golay algorithm) and baseline subtraction (‘TopHat’) for reproducible peak annotation on non-resolved isotope distributions: one cycle, 0.2 m/z for the width. For area calculation, the complete isotopic distribution was taken into account. […]

[3] = tested on: FLT3-ITD+, D835Y+ AML primagraft; assay: Primagraft study in NSG mice; type: in vivo; conditions: 15 mg/kg
Procedure: All animal studies were performed according to protocols approved by the Dana-Farber Cancer Institute's Institutional Animal Care and Use Committee. […]. Mice were sacrificed on day 21 of treatment. Bone marrow was flushed from mouse femurs, and spleens and livers were dissected and preserved first in formalin, followed 24 hours later by preservation in 70% ethanol. […]; All AML primagraft samples used in the studies described herein were obtained through the Public Repository of Xenografts (proxe.org).

[4] = tested on: Ba/F3-FLT3-ITD-luc+ cells; assay: Non-invasive in vivo bioluminescence study
HEL = assay: Anti-proliferation, 24 hr treatment (CellTiter-Glo); type: cell-based, human; conditions: 24 hr treatment; HEL (FLT3 wt or null); read-out: Anti-proliferation IC50
From the text: as §1, §2

K052 = assay: as above; type: cell-based, human; conditions: 24 hr treatment; K052 (FLT3 wt or null); read-out: Anti-proliferation IC50
From the text: as §1, §2

K562 = assay: as above; type: cell-based, human; conditions: 24 hr treatment; K562 (FLT3 wt or null); read-out: Anti-proliferation IC50
From the text: as §1, §2

MOLM13-luc+ = assay: as above; type: cell-based, human; conditions: 24 hr treatment; MOLM13-luc+ (FLT3-ITD); read-out: Anti-proliferation IC50
From the text: as §1, §2

MOLM14 = assay: as above; type: cell-based, human; conditions: 24 hr treatment; MOLM14 (FLT3-ITD); read-out: Anti-proliferation IC50
From the text: as §1, §2

MV4,11 = assay: as above; type: cell-based, human; conditions: 24 hr treatment; MV4,11 (FLT3-ITD); read-out: Anti-proliferation IC50
From the text: as §1, §2

NB4-luc+ = assay: as above; type: cell-based, human; conditions: 24 hr treatment; NB4-luc+ (FLT3 wt or null); read-out: Anti-proliferation IC50
From the text: as §1, §2

NOMO-1 = assay: as above; type: cell-based, human; conditions: 24 hr treatment; NOMO-1 (FLT3 wt or null); read-out: Anti-proliferation IC50
From the text: as §1, §2

OCI-AML5 = assay: as above; type: cell-based, human; conditions: 24 hr treatment; OCI-AML5 (FLT3 wt or null); read-out: Anti-proliferation IC50
From the text: as §1, §2

P31 = assay: as above; type: cell-based, human; conditions: 24 hr treatment; P31 (FLT3 wt or null); read-out: Anti-proliferation IC50
From the text: as §1, §2

TF-1 = assay: as above; type: cell-based, human; conditions: 24 hr treatment; TF-1 (FLT3 null); read-out: Anti-proliferation IC50
From the text: as §1, §2

U937 = assay: as above; type: cell-based, human; conditions: 24 hr treatment; U937 (FLT3 wt or null); read-out: Anti-proliferation IC50
From the text: as §1, §2

USP7 = USP7 (Homo sapiens, UniProt Q93009); assay: USP7 IC50 of HBX19818 analogs (Table 9); type: biochemical; conditions: read-out: USP7 IC50 +/− SEM
Sequence of USP7 (Q93009 whole entry): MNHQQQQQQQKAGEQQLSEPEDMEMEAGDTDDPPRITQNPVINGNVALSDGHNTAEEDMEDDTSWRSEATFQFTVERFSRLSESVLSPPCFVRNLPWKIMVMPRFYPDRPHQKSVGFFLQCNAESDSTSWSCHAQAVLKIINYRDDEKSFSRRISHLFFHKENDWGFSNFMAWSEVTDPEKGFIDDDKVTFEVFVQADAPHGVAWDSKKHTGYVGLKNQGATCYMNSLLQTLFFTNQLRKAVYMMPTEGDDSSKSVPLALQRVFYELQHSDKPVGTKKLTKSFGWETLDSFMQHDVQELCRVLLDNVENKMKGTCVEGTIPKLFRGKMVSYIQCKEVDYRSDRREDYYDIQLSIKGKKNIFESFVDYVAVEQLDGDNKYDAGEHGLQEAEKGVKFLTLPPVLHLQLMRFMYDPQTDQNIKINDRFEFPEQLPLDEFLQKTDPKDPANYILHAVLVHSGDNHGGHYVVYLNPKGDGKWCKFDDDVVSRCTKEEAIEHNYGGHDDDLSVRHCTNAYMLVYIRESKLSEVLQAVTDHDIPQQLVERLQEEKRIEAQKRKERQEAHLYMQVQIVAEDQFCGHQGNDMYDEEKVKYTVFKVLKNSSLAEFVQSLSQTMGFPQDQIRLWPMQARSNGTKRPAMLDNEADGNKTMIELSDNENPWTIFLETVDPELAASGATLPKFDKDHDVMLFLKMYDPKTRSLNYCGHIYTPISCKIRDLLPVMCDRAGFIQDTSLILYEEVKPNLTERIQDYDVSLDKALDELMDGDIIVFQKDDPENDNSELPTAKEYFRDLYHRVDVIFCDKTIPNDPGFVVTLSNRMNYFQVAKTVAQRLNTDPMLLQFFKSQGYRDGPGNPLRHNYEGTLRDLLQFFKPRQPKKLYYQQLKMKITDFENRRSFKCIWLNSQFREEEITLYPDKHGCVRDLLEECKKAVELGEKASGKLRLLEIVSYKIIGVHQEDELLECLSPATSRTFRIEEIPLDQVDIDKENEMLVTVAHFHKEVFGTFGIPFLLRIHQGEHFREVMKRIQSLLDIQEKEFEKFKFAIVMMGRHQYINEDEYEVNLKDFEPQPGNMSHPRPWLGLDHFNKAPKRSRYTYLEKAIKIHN

[5] = tested on: mutant FLT3-expressing cells; assay: Dynamic BH3 profiling (mitochondrial priming); type: cell-based, human; conditions: cytochrome c release in response to Bim peptide, 14 h; compared to wt or null FLT3-expressing cells
Procedure: To determine drug-induced changes in mitochondrial priming, dynamic BH3 profiling was performed as previously described in Montero et al. (2015) Cell 160:977-989 and Pan et al. (2014) Cancer Discov. 4:362-375. Briefly, 0.4×10^6 cells/well were exposed to drug treatment for 14 hours. At the end of incubation time, cells were washed in PBS, pelleted at 500×g for 5 min, and resuspended in MEB buffer. Fifteen μl of cell suspension was added to each well of 384 well plate containing 15 μl of MEB buffer containing 20 μg/mL digitonin and BH3 peptides at twice their final concentration, and the mixture was incubated for 60 min at 26° C. to allow mitochondrial depolarization. Peptide exposure was then terminated by adding 10 μl 4% formaldehyde in PBS for 15 min, followed by neutralization with N2 buffer (1.7M Tris, 1.25M glycine, pH 9.1) for 10 min. In order to determine cytochrome C levels, anti-cytochrome C clone 6H2.B4 conjugated to Alexa Fluor® 647 (BD Bioscience) was diluted 1:50 in 10× staining buffer (10% BSA, 2% Tween-20 and 0.02% sodium azide in PBS) and 10 μl of this antibody-containing buffer was added to each well for a final dilution of 1:400. Cells were stained overnight at 4° C. in dark and data were acquired on a BD LSRFortessa™ analyzer (BD Biosciences). Priming change (Δ) was calculated by comparing cytochrome C abundance in treated cells to that of DMSO-treated control cells.

SMILES: CC(=O)c1cc([N+](=O)[O-])c(Sc2ccc(F)cc2F)s1 [P22077]
- IC50 (PBMCs; Homo sapiens, 24 hr assay, PBMC#1, read-out: IC50 (+/−S.D.) PBMC#1): 10.6 µM
- IC50 (PBMCs; Homo sapiens, 24 hr assay, PBMC#2, read-out: IC50 (+/−S.D.) PBMC#2): 7.8 µM
- IC50 (PBMCs; Homo sapiens, 72 hr assay, PBMC#1, read-out: IC50 (+/−S.D.) PBMC#1): 6.9 µM
- IC50 (PBMCs; Homo sapiens, 72 hr assay, PBMC#2, read-out: IC50 (+/−S.D.) PBMC#2): 4.4 µM
- IC50 ([1]; Homo sapiens, 24 h): 6.9 µM
- IC50 ([1]; Homo sapiens, 72 h): 2.6 µM
- IC50 [2]: 15 µM
- IC50 (USP10): 6 µM
- Tolerability ([3]; 21-day treatment period): generally well-tolerated; also recorded: generally well tolerated
- Average weight loss ([3]; 21 days, same for vehicle-treated, none below 15% weight loss): 2 to 3 g
- Reduction in luciferase-positive signal in bone marrow versus vehicle ([4]; 50 mg/kg IP BID, 4 days): approximately 2 fold
- Lower percentage of FLT3 expression in bone marrow versus vehicle ([4]; 50 mg/kg IP BID, 4 days, flow cytometry): approximately 2 fold
- Vital organ toxicity ([4]; mouse studies): no evidence of vital organ toxicity
- Body weight versus vehicle ([4]; treated for up to 11 days): no significant difference in weight

SMILES: O=C(NCCN1CCN(Cc2ccccc2)CC1)c1ccc2nc3c(c(Cl)c2c1)CCCC3 [C598-0571]
- IC50 (HEL): 40.7 µM
- IC50 (K052): 35.1 µM
- IC50 (K562): 35.9 µM
- IC50 (MOLM13-luc+): 12.6 µM
- IC50 (MOLM14): 18.6 µM
- IC50 (MV4,11): 9.2 µM
- IC50 (NB4-luc+): 29 µM
- IC50 (NOMO-1): 20.9 µM
- IC50 (OCI-AML5): 37.7 µM
- IC50 (P31): 30 µM
- IC50 (TF-1): 18.4 µM
- IC50 (U937): 21.9 µM
- IC50 (PBMCs; 24 hr assay, PBMC#1, read-out: IC50 (+/−S.D.) PBMC#1): 32.3 µM
- IC50 (PBMCs; 24 hr assay, PBMC#2, read-out: IC50 (+/−S.D.) PBMC#2): 31.3 µM
- IC50 (PBMCs; 72 hr assay, PBMC#1, read-out: IC50 (+/−S.D.) PBMC#1): 16.6 µM
- IC50 (PBMCs; 72 hr assay, PBMC#2, read-out: IC50 (+/−S.D.) PBMC#2): 14.8 µM
- IC50 ([1]; 24 hr assay): 10.3 µM
- IC50 ([1]; 72 hr assay): 1.4 µM
- IC50 (USP7): 22 µM
- Mitochondrial priming for apoptosis [5]: more strongly
